Holding throughout (test): relative viability (nuclei count vs DMSO), 5 days (fraction); higher = more cells survive
Compound in test [1]: C1COCCN1CC2=CC(=O)C(=CO2)OCCCCCSC3=C4C=CC(=CC4=NC=C3)C(F)(F)F [EHT 1864] + N=C(N)NC(=N)NCCc1ccccc1 [Phenformin] (partner 250 µM)
In outline: (§1)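 Lung cancer cell lines in 1536-well plates were dosed by pin tool the day after seeding, either with one drug alone or with a fixed anchor-drug dose plus five library-drug doses (not always all listed) in √10 steps. After 5 days, cells were fixed and their nuclei stained in one step (final 0.05% Triton X-100, 1% formaldehyde, 1 ug/ml Hoechst), then counted on 4× images. Relative viability is the nuclei count in treated wells divided by that in vehicle wells. Values are medians of duplicate plates.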

Compound in test [2]: C1COCCN1CC2=CC(=O)C(=CO2)OCCCCCSC3=C4C=CC(=CC4=NC=C3)C(F)(F)F [EHT 1864] + CC1(C)CCC(c2ccc(Cl)cc2)=C(CN2CCN(c3ccc(C(=O)NS(=O)(=O)c4ccc(N[C@H](CCN5CCOCC5)CSc5ccccc5)c(S(=O)(=O)C(F)(F)F)c4)cc3)CC2)C1 [Navitoclax] (partner 0.5 µM)
In a few lines: as §1

Compound in test [3]: C1COCCN1CC2=CC(=O)C(=CO2)OCCCCCSC3=C4C=CC(=CC4=NC=C3)C(F)(F)F [EHT 1864] + Nc1nc2[nH]cc(CCc3ccc(C(=O)N[C@@H](CCC(=O)O)C(=O)O)cc3)c2c(=O)[nH]1 [Pemetrexed] (partner 0.2 µM)
In a few lines:
as §1

Compound in test [4]: C1COCCN1CC2=CC(=O)C(=CO2)OCCCCCSC3=C4C=CC(=CC4=NC=C3)C(F)(F)F [EHT 1864] + CC(=O)Nc1cccc(-n2c(=O)n(C3CC3)c(=O)c3c(Nc4ccc(I)cc4F)n(C)c(=O)c(C)c32)c1 [Trametinib] (partner 0.02 µM)
In a few lines: as §1

The values below come from the supplement of paper PMC10307832.

As to NCI-H2170, the relative viability in test [1] (first compound 0.04 µM) stood at 0.442; in test [1] (first compound 0.1265 µM) it was 0.349; in test [1] (first compound 0.4 µM), 0.392; in test [1] (first compound 1.265 µM) it was 0.368; in test [1] (first compound 4 µM) it was 0.37; in test [2] (first compound 0.04 µM) it was 0.674. The relative viability in test [2] (first compound 0.1265 µM) turned out to be 0.511; in test [2] (first compound 0.4 µM), 0.646; in test [2] (first compound 1.265 µM) it was 0.573; in test [2] (first compound 4 µM), 0.56; in test [3] (first compound 0.04 µM), 0.279; in test [3] (first compound 0.1265 µM), 0.251. Also, the relative viability in test [3] (first compound 0.4 µM) came to 0.262; in test [3] (first compound 1.265 µM) it was 0.279; in test [3] (first compound 4 µM), 0.266; in test [4] (first compound 0.04 µM), 0.893; in test [4] (first compound 0.1265 µM) it was 0.779; in test [4] (first compound 0.4 µM), 0.911. Moreover, the figures for the relative viability in test [4] (first compound 1.265 µM) and in test [4] (first compound 4 µM) were 0.886 and 0.911, respectively.

Consider LCLC-103H, for which the relative viability in test [1] (first compound 0.04 µM) was 0.356; in test [1] (first compound 0.1265 µM), 0.271; in test [1] (first compound 0.4 µM), 0.357; in test [1] (first compound 1.265 µM) it was 0.33; in test [1] (first compound 4 µM), 0.391; in test [3] (first compound 0.04 µM) it was 0.431. For the same cell line, the relative viability in test [3] (first compound 0.1265 µM) is 0.45; in test [3] (first compound 0.4 µM) it was 0.506; in test [3] (first compound 1.265 µM) it was 0.468; in test [3] (first compound 4 µM), 0.5; in test [4] (first compound 0.04 µM) it was 0.701; in test [4] (first compound 0.1265 µM), 0.612. Moreover, the values for the relative viability in test [4] (first compound 0.4 µM), in test [4] (first compound 1.265 µM) and in test [4] (first compound 4 µM) were 0.655, 0.588 and 0.55, respectively.

ABC-1: the relative viability in test [1] (first compound 0.04 µM) stood at 0.24; in test [1] (first compound 0.1265 µM) it was 0.258; in test [1] (first compound 0.4 µM), 0.208; in test [1] (first compound 1.265 µM), 0.273; in test [1] (first compound 4 µM), 0.218.

In the case of NCI-H358, the relative viability is 0.328 in test [1] (first compound 0.04 µM); 0.338 in test [1] (first compound 0.1265 µM); 0.367 in test [1] (first compound 0.4 µM); 0.345 in test [1] (first compound 1.265 µM); 0.303 in test [1] (first compound 4 µM); 0.173 in test [3] (first compound 0.04 µM). The relative viability in test [3] (first compound 0.1265 µM) was determined as 0.169; in test [3] (first compound 0.4 µM) it was 0.178; in test [3] (first compound 1.265 µM), 0.189; in test [3] (first compound 4 µM) it was 0.168; in test [4] (first compound 0.04 µM) it was 0.138; in test [4] (first compound 0.1265 µM), 0.126. The relative viability was 0.153 in test [4] (first compound 0.4 µM), 0.14 in test [4] (first compound 1.265 µM) and 0.124 in test [4] (first compound 4 µM).

With NCI-H1563, the relative viability in test [1] (first compound 0.04 µM) worked out at 0.672; in test [1] (first compound 0.1265 µM), 0.64; in test [1] (first compound 0.4 µM) it was 0.675; in test [1] (first compound 1.265 µM), 0.677; in test [1] (first compound 4 µM) it was 0.685; in test [3] (first compound 0.04 µM), 0.682. Also, the relative viability in test [3] (first compound 0.1265 µM) came out at 0.709; in test [3] (first compound 0.4 µM), 0.742; in test [3] (first compound 1.265 µM), 0.626; in test [3] (first compound 4 µM), 0.74.

Consider EBC-1, for which the relative viability was determined as 0.381 in test [2] (first compound 0.04 µM); 0.329 in test [2] (first compound 0.1265 µM); 0.449 in test [2] (first compound 0.4 µM); 0.431 in test [2] (first compound 1.265 µM); 0.429 in test [2] (first compound 4 µM).

Consider Calu-6, for which the relative viability in test [2] (first compound 0.04 µM) came out at 0.816; in test [2] (first compound 0.1265 µM), 0.7; in test [2] (first compound 0.4 µM), 0.876; in test [2] (first compound 1.265 µM), 0.757; in test [2] (first compound 4 µM), 0.764.
